From paper PMC5830402, “Cell-based glycan arrays for probing glycan–glycan binding protein interactions” (Nature Communications, 2018)

Assays:
ST3Gal4 (human α2-3ST) = molecular target: T1, ST3Gal4 (human α2-3ST) (Homo sapiens, UniProt Q11206); assay: transfer to Lec2 cell surface, ECL lectin flow cytometry; biotin-azide / streptavidin detection; assay type: cell-based; conditions: added recombinant enzyme; acceptor N-glycan LacNAc on Lec2 CHO cells; 37 °C, 1 h
T1 construct: recombinant glycosyltransferase
T1 sequence (Q11206 27-333 limits assumed): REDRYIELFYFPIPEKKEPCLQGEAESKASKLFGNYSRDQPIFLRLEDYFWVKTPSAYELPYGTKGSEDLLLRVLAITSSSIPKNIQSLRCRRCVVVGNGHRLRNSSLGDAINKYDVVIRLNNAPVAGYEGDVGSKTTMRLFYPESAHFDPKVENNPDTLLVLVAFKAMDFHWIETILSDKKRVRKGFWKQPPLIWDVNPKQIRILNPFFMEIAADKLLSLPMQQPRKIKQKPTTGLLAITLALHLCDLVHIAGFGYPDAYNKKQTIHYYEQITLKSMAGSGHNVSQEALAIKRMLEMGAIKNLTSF

ST6Gal1 (rat α2-6ST) = molecular target: T2, ST6Gal1 (rat α2-6ST) (Rattus norvegicus, UniProt P13721); assay: as above; assay type: cell-based; conditions: added recombinant enzyme; acceptor N-glycan LacNAc on Lec2 CHO cells; 37 °C, 1 h
T2 construct: recombinant glycosyltransferase
T2 sequence (P13721 27-403 limits assumed): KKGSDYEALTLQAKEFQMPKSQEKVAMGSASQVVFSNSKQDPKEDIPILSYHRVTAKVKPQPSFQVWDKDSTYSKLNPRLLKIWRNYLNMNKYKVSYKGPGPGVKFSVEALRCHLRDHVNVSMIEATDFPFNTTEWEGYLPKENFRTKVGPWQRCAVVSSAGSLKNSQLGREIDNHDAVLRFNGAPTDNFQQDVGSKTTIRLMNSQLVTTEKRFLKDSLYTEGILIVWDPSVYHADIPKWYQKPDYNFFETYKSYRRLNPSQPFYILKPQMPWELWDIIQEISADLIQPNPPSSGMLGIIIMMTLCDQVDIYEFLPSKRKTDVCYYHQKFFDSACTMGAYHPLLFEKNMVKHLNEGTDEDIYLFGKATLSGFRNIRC

C#CCOC(=O)N[C@H]1[C@H]([C@H](O)[C@H](O)CO)O[C@](OP(=O)(O)OC[C@H]2O[C@@H](n3ccc(N)nc3=O)[C@H](O)[C@@H]2O)(C(=O)O)C[C@@H]1O [compound 7, CMP-SiaPoc]
transfer to Lec2 cell surface, ECL lectin flow cytometry; biotin-azide / strepta (ST3Gal4 (human α2-3ST)): Upon sialylation by ST3Gal4 and ST6Gal1, Lec2 CHO cells showed a reduction in ECL binding
transfer to Lec2 cell surface, ECL lectin flow cytometry; biotin-azide / strepta (ST6Gal1 (rat α2-6ST)): Upon sialylation by ST3Gal4 and ST6Gal1, Lec2 CHO cells showed a reduction in ECL binding
